Laboratory results published in patent publication US11492335B2, “Aryl or heteroaryl triazolone derivatives or salts thereof, or pharmaceutical compositions comprising the same” (YUHAN CORPORATION, priority 2018, dated 2022).
Structures can show the parent of a compound that is named as a salt. Where two headings read alike, the source gives them in different places.

Legend:
recombinant human VAP-1 = target: T1, recombinant human VAP-1 (Homo sapiens, UniProt Q16853); experiment: Activity on recombinant human VAP-1, Amplex Red HRP-coupled hydrogen peroxide assay, benzylamine substrate; type: biochemical; conditions: recombinant human VAP-1, benzylamine substrate, read-out: Inhibitory Activity (IC50, nM) human VAP-1
T1 construct: purchased R&D systems
T1 sequence (Q16853 1-763): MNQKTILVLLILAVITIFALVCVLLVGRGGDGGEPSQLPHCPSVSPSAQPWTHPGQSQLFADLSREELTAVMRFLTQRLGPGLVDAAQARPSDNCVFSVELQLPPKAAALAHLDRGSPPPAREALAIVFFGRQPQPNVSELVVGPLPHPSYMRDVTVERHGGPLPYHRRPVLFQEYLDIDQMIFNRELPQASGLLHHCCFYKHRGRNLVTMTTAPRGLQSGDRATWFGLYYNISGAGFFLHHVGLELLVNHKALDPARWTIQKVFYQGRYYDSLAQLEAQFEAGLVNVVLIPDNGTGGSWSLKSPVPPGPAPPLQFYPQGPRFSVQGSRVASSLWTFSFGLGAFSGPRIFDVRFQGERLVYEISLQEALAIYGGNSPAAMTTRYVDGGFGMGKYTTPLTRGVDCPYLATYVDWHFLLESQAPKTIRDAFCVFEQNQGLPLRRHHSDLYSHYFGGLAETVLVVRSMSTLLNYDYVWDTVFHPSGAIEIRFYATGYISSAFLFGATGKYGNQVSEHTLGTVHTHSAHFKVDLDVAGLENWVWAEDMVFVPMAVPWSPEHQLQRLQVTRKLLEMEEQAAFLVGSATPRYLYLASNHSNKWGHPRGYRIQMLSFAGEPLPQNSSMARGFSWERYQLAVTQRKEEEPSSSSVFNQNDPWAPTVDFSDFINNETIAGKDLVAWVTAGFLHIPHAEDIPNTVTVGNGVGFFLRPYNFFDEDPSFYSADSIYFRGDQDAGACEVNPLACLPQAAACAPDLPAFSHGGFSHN
Method: (§1) The compounds according to the present technology were evaluated in terms of activity on recombinant human VAP-1 (R&D systems) by measuring the level of hydrogen peroxide in horseradish peroxidase (HRP)-coupled reaction using Amplex Red Hydrogen Peroxide Assay Kit (Molecular Probes, Invitrogen, USA). The experiment was carried out at room temperature using benzylamine as a substrate. In the HRP-coupled reaction, hydrogen peroxide oxidation of 10-acetyl-3,7-dihydroxyphenoxazine (Amplex Red reagent) produces resorufin, which is a highly fluorescent compound. Briefly, the test compound was dissolved in dimethyl sulfoxide (DMSO) at a concentration of 20 mM. The dose-response assessment was made by 1:3 serial dilution in DMSO, thereby creating an 8 point curve. The concentration of the upper part was controlled according to the efficacy of the compounds, followed by dilution with a reaction buffer solution to obtain a final DMSO concentration less than 1%. To each well of a 96 black well plate, human VAP-1 purified in 50 mM sodium phosphate buffer solution (pH7.4) was added. The test compounds dissolved in DMSO were incubated with the human VAP-1 enzymes at 37° C. for 30 minutes. After 30-minute incubation, each well is added with a reaction mixture containing 200 uM Amplex Red reagent prepared from 50 mM sodium phosphate buffer solution (pH 7.4), 1 mM benzylamine, and 1 U/mL HRP. Fluorescence intensity was measured at several time points during 1-2 hours using a microplate reader (Flexstation3, Molecular Devices) under the wavelength condition exciting at 544 nm and reading the emission at 590 nm. The inhibitory effect of the compounds was measured as a decrease (%) in the signal rate as compared to the control group without any inhibitor (only diluted DMSO). Data was fixed to a logistic model with four variables and IC50 value was calculated using GraphPad Prism program.

[1] = target: T2, recombinant human DAO (diamine oxidase) (Homo sapiens, UniProt P19801); experiment: Activity on recombinant human DAO, Amplex Red method, 1 mM putrescine substrate; type: biochemical; conditions: recombinant human DAO, 1 mM putrescine; * = between 10 and 100 nM, ** = between 300 and 1000 nM; read-out: Inhibitory Activity (IC50, nM) DAO
T2 construct: purchased R&D systems
T2 sequence (P19801 20-751): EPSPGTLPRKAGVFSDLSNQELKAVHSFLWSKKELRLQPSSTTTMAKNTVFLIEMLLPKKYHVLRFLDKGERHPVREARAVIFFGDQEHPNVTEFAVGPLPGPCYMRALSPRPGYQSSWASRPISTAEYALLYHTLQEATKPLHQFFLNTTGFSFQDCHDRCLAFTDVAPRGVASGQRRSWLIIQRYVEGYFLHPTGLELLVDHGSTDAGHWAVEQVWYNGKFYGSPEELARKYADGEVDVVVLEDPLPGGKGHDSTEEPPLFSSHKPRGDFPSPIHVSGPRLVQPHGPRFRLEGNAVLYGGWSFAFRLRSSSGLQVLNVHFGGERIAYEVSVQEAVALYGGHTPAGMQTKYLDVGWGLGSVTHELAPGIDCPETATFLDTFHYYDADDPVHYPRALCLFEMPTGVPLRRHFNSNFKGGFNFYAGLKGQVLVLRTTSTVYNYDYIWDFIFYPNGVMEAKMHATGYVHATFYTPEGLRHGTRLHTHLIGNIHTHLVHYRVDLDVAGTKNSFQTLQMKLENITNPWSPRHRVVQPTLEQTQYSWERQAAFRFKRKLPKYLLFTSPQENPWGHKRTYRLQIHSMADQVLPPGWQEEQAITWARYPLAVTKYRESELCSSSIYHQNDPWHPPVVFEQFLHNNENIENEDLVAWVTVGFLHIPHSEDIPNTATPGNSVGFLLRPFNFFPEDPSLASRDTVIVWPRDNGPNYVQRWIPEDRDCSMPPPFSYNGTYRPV
Method: as §1
In addition, the compounds according to the present technology were evaluated in terms of activity on a recombinant human MAO-A (monoamine oxidase-A, Sigma-Aldrich) and a recombinant human MAO-B (monoamine oxidase-B, Sigma-Aldrich) by using as substrates, 0.5 mM tyramine and 1 mM benzylamine, respectively, with a method similar to the activity evaluation method for recombinant human VAP-1. The compounds according to the present technology were also evaluated in terms of activity on a recombinant human DAO (diamine oxidase, R&D systems) by using as a substrate 1 mM putrescine with a method similar to the activity evaluation method for recombinant human VAP-1.

| IC50 (recombinant human VAP-1; 30 min preincubation at 37° C.) [nM] | IC50 [1] [nM] | IC50 (recombinant human VAP-1) [nM] | Compound |
| --- | --- | --- | --- |
| 17 | – | – | NC/C(=C/F)Cn1ncn(-c2ccc(Br)cc2)c1=O [Example 1, 2-[(2Z)-2-(aminomethyl)-3-fluoroprop-2-en-1-yl]-4-(4-bromophenyl)-2,4-dihydro-3H-1,2,4-triazol-3-one] |
| 45 | 1100 | – | Cc1cc(Br)ncc1-n1cnn(C/C(=C/F)CN)c1=O [Example 28, 2-[(2E)-2-(aminomethyl)-3-fluoroprop-2-en-1-yl]-4-(6-bromo-4-methylpyridin-3-yl)-2,4-dihydro-3H-1,2,4-triazol-3-one hydrochloride] |
| 47 | – | – | Cc1cc(Br)cnc1-n1cnn(C/C(=C\F)CN)c1=O [Example 31, 2-[(2Z)-2-(aminomethyl)-3-fluoroprop-2-en-1-yl]-4-(5-bromo-3-methylpyridin-2-yl)-2,4-dihydro-3H-1,2,4-triazol-3-one hydrochloride] |
| 31 | – | – | Cc1cc(-n2cnn(C/C(=C\F)CN)c2=O)ncc1Br [Example 33, 2-[(2Z)-2-(aminomethyl)-3-fluoroprop-2-en-1-yl]-4-(5-bromo-4-methylpyridin-2-yl)-2,4-dihydro-3H-1,2,4-triazol-3-one hydrochloride] |
| 2.8 | 1200 | – | COc1cc(N2CCOCC2)c(Br)cc1-n1cnn(C/C(=C/F)CN)c1=O [Example 47, 2-[(2E)-2-(aminomethyl)-3-fluoroprop-2-en-1-yl]-4-[5-bromo-2-methoxy-4-(morpholin-4-yl)phenyl]-2,4-dihydro-3H-1,2,4-triazol-3-one hydrochloride] |
| 2.5 | < 30 | – | CS(=O)(=O)c1ccc(-c2cccc(-n3cnn(C/C(=C\F)CN)c3=O)c2)cc1 [Example 53, 2-[(2Z)-2-(aminomethyl)-3-fluoroprop-2-en-1-yl]-4-[4′-(methylsulfonyl)biphenyl-3-yl]-2,4-dihydro-3H-1,2,4-triazol-3-one hydrochloride] |
| 1.3 | < 100 | – | NC/C(=C/F)Cn1ncn(-c2cccc(-c3cccc(-c4nnc[nH]4)c3)c2)c1=O [Example 60, 2-[(2Z)-2-(aminomethyl)-3-fluoroprop-2-en-1-yl]-4-[3′-(4H-1,2,4-triazol-3-yl)biphenyl-3-yl]-2,4-dihydro-3H-1,2,4-triazol-3-one] |
| 1.5 | 13 | – | Cc1ncc(-c2cccc(-n3cnn(C/C(=C/F)CN)c3=O)c2)cn1 [Example 91, 2-[(2E)-2-(aminomethyl)-3-fluoroprop-2-en-1-yl]-4-[3-(2-methylpyrimidin-5-yl)phenyl]-2,4-dihydro-3H-1,2,4-triazol-3-one hydrochloride] |
| 3 | 54 | – | NC/C(=C\F)Cn1ncn(-c2cccc(-c3cncc4ccccc34)c2)c1=O [Example 104, 2-[(2E)-2-(aminomethyl)-3-fluoroprop-2-en-1-yl]-4-[3-(isoquinolin-4-yl)phenyl]-2,4-dihydro-3H-1,2,4-triazol-3-one hydrochloride] |
| 8.1 | 740 | – | CC(=O)Nc1cc(-c2cccc(-n3cnn(C/C(=C/F)CN)c3=O)c2C)ccn1 [Example 109, N-[4-(3-{1-[(2E)-2-(aminomethyl)-3-fluoroprop-2-en-1-yl]-5-oxo-1,5-dihydro-4H-1,2,4-triazol-4-yl}-2-methylphenyl)pyridin-2-yl]acetamide] |
| 2.3 | < 1000 | – | Cc1c(-c2ccc3nonc3c2)cccc1-n1cnn(C/C(=C/F)CN)c1=O [Example 113, 2-[(2E)-2-(aminomethyl)-3-fluoroprop-2-en-1-yl]-4-[3-(2,1,3-benzooxadiazol-5-yl)-2-methylphenyl]-2,4-dihydro-3H-1,2,4-triazol-3-one] |
| – | – | 23 | NC/C(=C\F)Cn1ncn(-c2cccc(-c3ccc(-c4noc(=O)[nH]4)cc3)n2)c1=O [Example 182, 3-[4-(6-{1-[(2E)-2-(aminomethyl)-3-fluoroprop-2-en-1-yl]-5-oxo-1,5-dihydro-4H-1,2,4-triazol-4-yl}pyridin-2-yl)phenyl]-1,2,4-oxadiazol-5(4H)-one hydrochloride] |
